Data reported in patent US20080249028A1, “Thyrotropin-Releasing Hormone Analogs and Method of Use” (Roger Williams Hospital, priority 2005, published 2008).

Tested on: STZ-induced hyperglycemic rats
Assay: Effect on STZ-induced hyperglycemia in rats (blood glucose level)
Format: in vivo, rat
Settings: Tables 2-3, rats
Procedure: Male Sprague-Dawley rats (S.D. 180 g) were used in the experiments described below. The animals lived in individual metabolism cages with free access to food and water, while food and body weight were monitored daily. Peripheral blood samples (approximately 10 μl) were obtained from the tail vein of the animals. The blood glucose levels were measured by using Accu-Check Blood Glucose Meter (Roche Diagnosetics Corporation, IN). Beta cell function was evaluated once every two days over a 2-week period by an individual unaware of the treatment group. Animals were evaluated separately for blood glucose level, food intake and body weight. The endpoint check was pancreatic insulin content and pancreatic beta cell number.
Streptozotocin (STZ) was used to chemically induce damage in pancreatic function in order to create a hyperglycemic state in the animals. Eight-week old male Sprague-Dawley rats (200.00 g±10 g) were injected with STZ by intraperitoneal (i.p.) (65 mg/kg body weight (BW)) to create hyperglycemic animals (24 to 48 hours). Blood glucose levels were monitored daily. Onset of hyperglycemia occurred usually about 24 to 48 hours after STZ administration.
[…] the seventh day or on the third day after STZ administration, which allowed for examination of the TRH/TRH analog treatment and the degree of pancreatic damage in the diabetic animal. Again, food intake, body weight and blood glucose levels of each of the animals were monitored. When hyperglycemia was determined to be reversed by TRH/TRH analog, the animal was sacrificed. Blood samples were collected for insulin assay and the pancreas and muscles were collected for further pathological and physiological tests.
The figures shown in the tables are blood glucose levels (mg/dL; i.e., milligrams of glucose per deciliter of blood).

`NC(=O)C1CCCN1C(=O)C(Cc1c[nH]cn1)NC(=O)C(N)CCC(=O)O` (stereo not shown) [GluT, 4-Amino-4-[2-(2-carbamoyl-pyrrolidin-1-yl)-1-(1H-imidazol-4-ylmethyl)-2-oxo-ethylcarbamoyl]-butyric acid] was tested, and the blood glucose level (STZ + compound 5 µg/kg, Day 1) was 94 mg/dL, the blood glucose level (STZ + compound 5 µg/kg, Day 4) was 98 mg/dL and the blood glucose level (STZ + compound 5 µg/kg, Day 7) was 466 mg/dL. It also gave a blood glucose level (STZ + compound 5 µg/kg, Day 11) of 457 mg/dL, a blood glucose level (STZ + compound 5 µg/kg, Day 15) of 186 mg/dL and a blood glucose level (STZ + compound 5 µg/kg, Day 18) of 215 mg/dL. For the same molecule, the blood glucose level (STZ + compound 5 µg/kg, Day 21) was 213 mg/dL, the blood glucose level (STZ + compound 5 µg/kg, Day 25) was 173 mg/dL and the blood glucose level (STZ + compound 5 µg/kg, Day 28) was 369 mg/dL. The blood glucose level (STZ + compound 5 µg/kg, Day 32) was 342 mg/dL, the blood glucose level (STZ + compound 5 µg/kg, Day 35) was 336 mg/dL and the blood glucose level (STZ + compound 5 µg/kg, Day 39) was 376 mg/dL. The blood glucose level (STZ + compound 5 µg/kg, Day 42) was 390 mg/dL, the blood glucose level (STZ + compound 5 µg/kg, Day 46) was 317 mg/dL and the blood glucose level (STZ + compound 5 µg/kg, Day 54) was 260 mg/dL. For the same molecule, the blood glucose level (STZ + compound 5 µg/kg, Day 61) was 324 mg/dL, the blood glucose level (STZ + compound 10 µg/kg, Day 1) was 103 mg/dL and the blood glucose level (STZ + compound 10 µg/kg, Day 4) was 99 mg/dL. The blood glucose level (STZ + compound 10 µg/kg, Day 7) was 415 mg/dL, the blood glucose level (STZ + compound 10 µg/kg, Day 11) was 477 mg/dL and the blood glucose level (STZ + compound 10 µg/kg, Day 15) was 117 mg/dL. The blood glucose level (STZ + compound 10 µg/kg, Day 18) was 125 mg/dL, the blood glucose level (STZ + compound 10 µg/kg, Day 21) was 103 mg/dL and the blood glucose level (STZ + compound 10 µg/kg, Day 25) was 102 mg/dL. It also gave a blood glucose level (STZ + compound 10 µg/kg, Day 28) of 429 mg/dL, a blood glucose level (STZ + compound 10 µg/kg, Day 32) of 111 mg/dL and a blood glucose level (STZ + compound 10 µg/kg, Day 35) of 128 mg/dL. It also gave a blood glucose level (STZ + compound 10 µg/kg, Day 39) of 252 mg/dL, a blood glucose level (STZ + compound 10 µg/kg, Day 42) of 224 mg/dL and a blood glucose level (STZ + compound 10 µg/kg, Day 46) of 289 mg/dL. It also gave a blood glucose level (STZ + compound 10 µg/kg, Day 54) of 255 mg/dL, a blood glucose level (STZ + compound 10 µg/kg, Day 61) of 218 mg/dL and a blood glucose level (STZ + compound 20 µg/kg, Day 1) of 103 mg/dL. It also gave a blood glucose level (STZ + compound 20 µg/kg, Day 4) of 98 mg/dL, a blood glucose level (STZ + compound 20 µg/kg, Day 7) of 461 mg/dL and a blood glucose level (STZ + compound 20 µg/kg, Day 11) of 502 mg/dL. For the same molecule, the blood glucose level (STZ + compound 20 µg/kg, Day 15) was 266 mg/dL, the blood glucose level (STZ + compound 20 µg/kg, Day 18) was 263 mg/dL and the blood glucose level (STZ + compound 20 µg/kg, Day 21) was 382 mg/dL. For the same molecule, the blood glucose level (STZ + compound 20 µg/kg, Day 25) was 345 mg/dL, the blood glucose level (STZ + compound 20 µg/kg, Day 28) was 496 mg/dL and the blood glucose level (STZ + compound 20 µg/kg, Day 32) was 468 mg/dL. For the same molecule, the blood glucose level (STZ + compound 20 µg/kg, Day 35) was 485 mg/dL, the blood glucose level (STZ + compound 20 µg/kg, Day 39) was 477 mg/dL and the blood glucose level (STZ + compound 20 µg/kg, Day 42) was 457 mg/dL. It also gave a blood glucose level (STZ + compound 20 µg/kg, Day 46) of 487 mg/dL, a blood glucose level (STZ + compound 20 µg/kg, Day 54) of 389 mg/dL and a blood glucose level (STZ + compound 20 µg/kg, Day 61) of 452 mg/dL. For the same molecule, the blood glucose level (STZ + compound 40 µg/kg, Day 1) was 105 mg/dL, the blood glucose level (STZ + compound 40 µg/kg, Day 4) was 99 mg/dL and the blood glucose level (STZ + compound 40 µg/kg, Day 7) was 548 mg/dL. The blood glucose level (STZ + compound 40 µg/kg, Day 11) was 568 mg/dL, the blood glucose level (STZ + compound 40 µg/kg, Day 15) was 327 mg/dL and the blood glucose level (STZ + compound 40 µg/kg, Day 18) was 405 mg/dL. The blood glucose level (STZ + compound 40 µg/kg, Day 21) was 472 mg/dL, the blood glucose level (STZ + compound 40 µg/kg, Day 25) was 455 mg/dL and the blood glucose level (STZ + compound 40 µg/kg, Day 28) was 514 mg/dL. It also gave a blood glucose level (STZ + compound 40 µg/kg, Day 32) of 543 mg/dL, a blood glucose level (STZ + compound 40 µg/kg, Day 35) of 507 mg/dL and a blood glucose level (STZ + compound 40 µg/kg, Day 39) of 589 mg/dL. The blood glucose level (STZ + compound 40 µg/kg, Day 42) was 592 mg/dL, the blood glucose level (STZ + compound 40 µg/kg, Day 46) was 609 mg/dL and the blood glucose level (STZ + compound 40 µg/kg, Day 54) was 531 mg/dL. For the same molecule, the blood glucose level (STZ + compound 40 µg/kg, Day 61) was 413 mg/dL.
